pIC50: −log10 of the molar value.
How the values were obtained:
[1] = target: Recombinant human EIF2AK3 (PERK) catalytic domain (amino acids 536-1116) (Homo sapiens (Human), UniProt Q9NZJ5); assay: PERK In Vitro Activity Assay (isolated), TR-FRET kinase assay; conditions: isolated PERK enzyme, 1.5 μM ATP, read-out: Biochemical IC50
Method in brief: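 IC50 values come from 4-parameter logistic fits of TR-FRET ratios, read after 90 min with 2 nM terbium-labelled phospho-eIF2a antibody following an EDTA stop (10 mM final). The kinase reaction ran 45 min at room temperature, started by adding PERK catalytic domain to 100–200 nM GFP-eIF2a in HEPES pH 7.5 buffer with MgCl2, EGTA and Brij-35.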

[2] = tested on: eIF2α in HEK293-EGFP-eIF2α cells; assay: PERK Cellular Assay (HEK293-EGFP-eIF2α cells, tunicamycin-induced ER stress, TR-FRET); type: cell-based; conditions: tunicamycin 2 hours
Method in brief: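 After 2 h tunicamycin ([…]) stress following 30 min compound pretreatment at 37 °C, lysed HEK293-EGFP-eIF2α cells were read by TR-FRET. IC50 derived by 4-parameter logistic fitting of percent inhibition, DMSO-normalized, from 10-point 3-fold dilutions.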

Recombinant human EIF2AK3 (PERK) catalytic domain (amino acids 536-1116), sequence (Q9NZJ5 536-1116): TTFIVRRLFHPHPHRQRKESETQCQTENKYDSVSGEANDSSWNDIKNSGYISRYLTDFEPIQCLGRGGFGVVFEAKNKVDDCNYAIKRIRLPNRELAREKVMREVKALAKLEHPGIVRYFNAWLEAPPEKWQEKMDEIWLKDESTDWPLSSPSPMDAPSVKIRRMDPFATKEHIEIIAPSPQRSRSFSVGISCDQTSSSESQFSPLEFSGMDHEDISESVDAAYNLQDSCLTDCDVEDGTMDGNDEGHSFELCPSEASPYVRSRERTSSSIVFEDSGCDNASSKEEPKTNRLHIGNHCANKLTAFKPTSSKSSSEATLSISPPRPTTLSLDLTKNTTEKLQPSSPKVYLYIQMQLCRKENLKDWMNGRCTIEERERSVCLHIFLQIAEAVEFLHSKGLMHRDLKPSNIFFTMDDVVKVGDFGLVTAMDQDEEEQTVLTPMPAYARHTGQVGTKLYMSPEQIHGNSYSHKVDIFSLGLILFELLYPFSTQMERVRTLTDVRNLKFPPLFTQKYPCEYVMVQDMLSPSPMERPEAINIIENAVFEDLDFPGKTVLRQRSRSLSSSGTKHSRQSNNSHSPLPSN

| SMILES | pIC50 [1] | pIC50 [2] |
| --- | --- | --- |
| [2H]C([2H])([2H])c1nc(-c2ccc(NC(=O)C(O)c3cc(F)cc(C(F)(F)F)c3)c(F)c2F)c2c(N)ncc(Cl)n12 (stereo not drawn) [Example 165, N-[4-[8-amino-5-chloro-3-(trideuteriomethyl)imidazo[1,5-a]pyrazin-1-yl]-2,3-difluoro-phenyl]-2-[3-fluoro-5-(trifluoromethyl)phenyl]-2-hydroxy-acetamide] | 7.30 to 7.59 | 6.60 to 7.00 |
| [2H]C([2H])([2H])c1nc(-c2ccc(NC(=O)C(O)c3cc(F)cc(C(F)(F)F)c3)c(F)c2F)c2c(N)nc(C)cn12 (stereo not drawn) [Example 166, N-[4-[8-amino-6-methyl-3-(trideuteriomethyl)imidazo[1,5-a]pyrazin-1-yl]-2,3-difluoro-phenyl]-2-[3-fluoro-5-(trifluoromethyl)phenyl]-2-hydroxy-acetamide] | 7.60 to 9.00 | 7.60 to 9.00 |
| [2H]C([2H])([2H])c1nc(-c2ccc(NC(=O)C(O)c3cc(F)cc(C(F)(F)F)c3)c(F)c2F)c2c(N)nc(C)cn12 (stereo not drawn) [Example 167, N-[4-[8-amino-6-methyl-3-(trideuteriomethyl)imidazo[1,5-a]pyrazin-1-yl]-2,3-difluoro-phenyl]-2-[3-fluoro-5-(trifluoromethyl)phenyl]-2-hydroxy-acetamide] | 7.30 to 7.59 | 6.60 to 7.00 |
| Cc1c(-c2nc(C)n3c(C)cnc(N)c23)ccc(NC(=O)C(O)c2cccc(F)c2)c1F (stereo not drawn) [Example 168, N-(4-(8-amino-3,5-dimethyl-imidazo[1,5-a]pyrazin-1-yl)-2-fluoro-3-methyl-phenyl)-2-(3-fluorophenyl)-2-hydroxy-acetamide] | 7.60 to 9.00 | 6.30 to 6.60 |
| Cc1c(-c2nc(C)n3c(C)cnc(N)c23)ccc(NC(=O)C(O)c2cccc(F)c2)c1F (stereo not drawn) [Example 169, N-(4-(8-amino-3,5-dimethyl-imidazo[1,5-a]pyrazin-1-yl)-2-fluoro-3-methyl-phenyl)-2-(3-fluorophenyl)-2-hydroxy-acetamide] | 7.60 to 9.00 | 7.60 to 9.00 |
| [2H]C([2H])([2H])c1nc(-c2ccc(NC(=O)C(O)c3cccc(F)c3)nc2C)c2c(N)nc(C)cn12 (stereo not drawn) [Example 170, N-[5-[8-amino-6-methyl-3-(trideuteriomethyl)imidazo[1,5-a]pyrazin-1-yl]-6-methyl-2-pyridyl]-2-(3-fluorophenyl)-2-hydroxy-acetamide] | 7.60 to 9.00 | 6.60 to 7.00 |
| [2H]C([2H])([2H])c1nc(-c2ccc(NC(=O)C(O)c3cccc(F)c3)nc2C)c2c(N)nc(C)cn12 (stereo not drawn) [Example 171, N-[5-[8-amino-6-methyl-3-(trideuteriomethyl)imidazo[1,5-a]pyrazin-1-yl]-6-methyl-2-pyridyl]-2-(3-fluorophenyl)-2-hydroxy-acetamide] | 5.70 to 6.00 | < 5.30 |
| [2H]C([2H])([2H])c1nc(-c2ccc(NC(=O)C(O)c3cccc(F)c3)nc2C)c2c(N)ncc(C)n12 (stereo not drawn) [Example 173, N-[5-[8-amino-5-methyl-3-(trideuteriomethyl)imidazo[1,5-a]pyrazin-1-yl]-6-methyl-2-pyridyl]-2-(3-fluorophenyl)-2-hydroxy-acetamide] | 7.60 to 9.00 | 7.30 to 7.59 |
| [2H]C([2H])([2H])c1nc(-c2ccc(NC(=O)C(O)c3cccc(C(F)(F)F)c3)nc2C)c2c(N)ncc(C)n12 (stereo not drawn) [Example 174, N-[5-[8-amino-5-methyl-3-(trideuteriomethyl)imidazo[1,5-a]pyrazin-1-yl]-6-methyl-2-pyridyl]-2-hydroxy-2-[3-(trifluoromethyl)phenyl]acetamide] | 7.60 to 9.00 | 7.30 to 7.59 |
| [2H]C([2H])([2H])c1nc(-c2ccc(NC(=O)C(O)c3cccc(C(F)(F)F)c3)nc2C)c2c(N)ncc(C)n12 (stereo not drawn) [Example 175, N-[5-[8-amino-5-methyl-3-(trideuteriomethyl)imidazo[1,5-a]pyrazin-1-yl]-6-methyl-2-pyridyl]-2-hydroxy-2-[3-(trifluoromethyl)phenyl]acetamide] | 7.60 to 9.00 | 6.60 to 7.00 |
| [2H]C([2H])([2H])c1nc(-c2ccc(NC(=O)C(O)c3cccc(C(F)(F)F)c3)nc2C)c2c(N)nc(C)cn12 (stereo not drawn) [Example 176, N-[5-[8-amino-6-methyl-3-(trideuteriomethyl)imidazo[1,5-a]pyrazin-1-yl]-6-methyl-2-pyridyl]-2-hydroxy-2-[3-(trifluoromethyl)phenyl]acetamide] | 7.60 to 9.00 | 7.00 to 7.29 |
| [2H]C([2H])([2H])c1nc(-c2ccc(NC(=O)C(O)c3cccc(C(F)(F)F)c3)nc2C)c2c(N)nc(C)cn12 (stereo not drawn) [Example 177, N-[5-[8-amino-6-methyl-3-(trideuteriomethyl)imidazo[1,5-a]pyrazin-1-yl]-6-methyl-2-pyridyl]-2-hydroxy-2-[3-(trifluoromethyl)phenyl]acetamide] | 6.60 to 7.00 | 6.00 to 6.30 |
| [2H]C([2H])([2H])c1nc(-c2cnc(NC(=O)C(O)c3cccc(F)c3)cc2C)c2c(N)nc(C)cn12 (stereo not drawn) [Example 178, N-[5-[8-amino-6-methyl-3-(trideuteriomethyl)imidazo[1,5-a]pyrazin-1-yl]-4-methyl-2-pyridyl]-2-(3-fluorophenyl)-2-hydroxy-acetamide] | 6.30 to 6.60 | 5.30 to 5.40 |
| [2H]C([2H])([2H])c1nc(-c2cnc(NC(=O)C(O)c3cccc(F)c3)cc2C)c2c(N)nc(C)cn12 (stereo not drawn) [Example 179, N-[5-[8-amino-6-methyl-3-(trideuteriomethyl)imidazo[1,5-a]pyrazin-1-yl]-4-methyl-2-pyridyl]-2-(3-fluorophenyl)-2-hydroxy-acetamide] | 7.60 to 9.00 | 6.30 to 6.60 |
| [2H]C([2H])([2H])c1nc(-c2cnc(NC(=O)C(O)c3cccc(F)c3)cc2C)c2c(N)ncc(C)n12 (stereo not drawn) [Example 180, N-[5-[8-amino-5-methyl-3-(trideuteriomethyl)imidazo[1,5-a]pyrazin-1-yl]-4-methyl-2-pyridyl]-2-(3-fluorophenyl)-2-hydroxy-acetamide] | 7.30 to 7.59 | 6.00 to 6.30 |
| [2H]C([2H])([2H])c1nc(-c2cnc(NC(=O)C(O)c3cccc(F)c3)cc2C)c2c(N)ncc(C)n12 (stereo not drawn) [Example 181, N-[5-[8-amino-5-methyl-3-(trideuteriomethyl)imidazo[1,5-a]pyrazin-1-yl]-4-methyl-2-pyridyl]-2-(3-fluorophenyl)-2-hydroxy-acetamide] | 7.60 to 9.00 | 7.30 to 7.59 |
| [2H]C([2H])([2H])c1nc(-c2cnc(NC(=O)C(O)c3cccc(C(F)(F)F)c3)cc2C)c2c(N)nc(C)cn12 (stereo not drawn) [Example 182, N-[5-[8-amino-6-methyl-3-(trideuteriomethyl)imidazo[1,5-a]pyrazin-1-yl]-4-methyl-2-pyridyl]-2-hydroxy-2-[3-(trifluoromethyl)phenyl]acetamide] | 7.60 to 9.00 | 6.60 to 7.00 |
| [2H]C([2H])([2H])c1nc(-c2cnc(NC(=O)C(O)c3cccc(C(F)(F)F)c3)cc2C)c2c(N)nc(C)cn12 (stereo not drawn) [Example 183, N-[5-[8-amino-6-methyl-3-(trideuteriomethyl)imidazo[1,5-a]pyrazin-1-yl]-4-methyl-2-pyridyl]-2-hydroxy-2-[3-(tnfluoromethyl)phenyl]acetamide] | 6.30 to 6.60 | 5.52 to 5.70 |

From patent publication US12331054B2, “Perk inhibiting imidazolopyrazine compounds” (HiberCell, Inc., priority 2019, dated 2025)
